Data published in patent US4430341A, “Water soluble pesticidal quaternary ammonium salt compounds” (Union Carbide Corporation, priority 1977, dated 1984).

Tests used:
[1] = tested on: Bean; test: Phytotoxicity test, Bean; assay type: in vivo; parameters: key: 1: no perceptible injury; 2: intermediate degrees of injury based upon the number and extent to which leaves were injured; 3: intermediate degrees of injury based upon the number and extent to which leaves were injured; 4: intermediate degrees of injury based upon the number and extent to which leaves were injured; 5: the plant was dead; conditions: 2500 parts per million; ten days
Method: (§1) Experiments were also conducted to determine the phytotoxicity of a representative composition with respect to healthy fresh plants. A solution of the compound prepared as described above to provide a concentration of 2500 parts per million of the test compound. The test plants were sprayed in accordance with the procedure described above for the Mite Foliage Spray Test so as to deliver approximately 100 milliliters of test solution to the leaves of each plant tested. The sprayed plants and controls were set aside for approximately one hour to allow the solutions to dry and were then placed in the greenhouse. After ten days the plants were visually inspected to determine the extent of foliage injury. A rating of 1 indicates no perceptible injury; 5 indicates the plant was dead and ratings of 2, 3 and 4 indicate intermediate degrees of injury based upon the number and extent to which leaves were injured.

[2] = tested on: southern armyworm (Prodenia Eridania, (Cram.)); test: Southern Armyworm Leaf Spray Test; assay type: in vivo; parameters: key: A: Excellent control; B: Partial control; C: No control; conditions: 500 parts per million; three days
Method: (§2) The compound of EXAMPLE IV was evaluated to determine its pesticidal activity against mites and certain insects, including an aphid, a caterpillar, a beetle and a fly.
(§3) Suspensions of the test compound was prepared by dissolving one gram of compound in 50 milliliters of acetone in which had been dissolved 0.1 gram (10 percent of the weight of compound) of an alkylphenoxy polyethoxyethanol surfactant, as an emulsifying or dispersing agent. The resulting solution was mixed into 150 milliliters of water to give roughly 200 of milliliters of a suspension containing the compound in finely divided form. The thus-prepared stock suspension contained 0.5 percent by weight of test compound. The test concentrations in parts per million by weight employed in the tests described hereinbelow were obtained by appropriate dilutions of the stock suspension with water. The test procedures were as follows.
Larvae of the southern armyworm (Prodenia Eridania, (Cram.), reared on Tendergreen bean plants at a temperature of 80±5° F. and relative humidity of 50±5 percent, constituted the test insects. […]
This application which lasted 25 seconds was sufficient to wet plants to run-off. […] Percent mortality was recorded for various concentration levels. […]

[3] = tested on: Soybean; test: Phytotoxicity test, Soybean; assay type: in vivo; parameters: key: 1: no perceptible injury; 2: intermediate degrees of injury based upon the number and extent to which leaves were injured; 3: intermediate degrees of injury based upon the number and extent to which leaves were injured; 4: intermediate degrees of injury based upon the number and extent to which leaves were injured; 5: the plant was dead; conditions: 2500 parts per million; ten days
Method: as §1

[4] = tested on: bean aphid (Aphis fabae Scop.); test: Bean Aphid Foliage Spray Test; assay type: in vivo; parameters: key: A: Excellent control; B: Partial control; C: No control; conditions: 500 parts per million; 24 hour holding period
Method: as §2, §3
Adults and nymphal stages of the bean aphid (Aphis fabae Scop.) reared on potted dwarf nasturtium plants at 65°-70° F. and 50-70 percent relative humidity, constituted the test insects. […]
The potted plants (one pot per compound tested) infested with 100-150 aphids, were placed on a revolving turntable and sprayed with 100-110 milliliters of test compound formulation by use of a DeVilbiss spray gun set at 40 psig. air pressure. […] Percent mortality was recorded for various concentration levels. […]

[5] = tested on: Tom.; test: Phytotoxicity test, Tom.; assay type: in vivo; parameters: key: 1: no perceptible injury; 2: intermediate degrees of injury based upon the number and extent to which leaves were injured; 3: intermediate degrees of injury based upon the number and extent to which leaves were injured; 4: intermediate degrees of injury based upon the number and extent to which leaves were injured; 5: the plant was dead; conditions: 2500 parts per million; ten days
Method: as §1

[6] = tested on: two-spotted mite (Tetranychus urticae Koch); test: Mite Foliage Spray Test; assay type: in vivo; parameters: key: A: Excellent control; B: Partial control; C: No control; conditions: 500 parts per million; six days
Method: as §2, §3
Adults and nymphal stages of the two-spotted mite (Tetranychus urticae Koch), reared on Tendergreen bean plants at 80±5 percent relative humidity, were the test organisms. Infested leaves from a stock culture were placed on the primary leaves of two bean plants six to eight inches in height, growing in a two- and-a-half inch clay pot. 150-200 mites, a sufficient number for testing, transferred from the excised leaves to the fresh plants in a period of twenty-four hours. […]

[7] = tested on: Cot.; test: Phytotoxicity test, Cot. (fourth column); assay type: in vivo; parameters: key: 1: no perceptible injury; 2: intermediate degrees of injury based upon the number and extent to which leaves were injured; 3: intermediate degrees of injury based upon the number and extent to which leaves were injured; 4: intermediate degrees of injury based upon the number and extent to which leaves were injured; 5: the plant was dead; conditions: 2500 parts per million; ten days
Method: as §1

[8] = tested on: Cot.; test: Phytotoxicity test, Cot. (second column); assay type: in vivo; parameters: key: 1: no perceptible injury; 2: intermediate degrees of injury based upon the number and extent to which leaves were injured; 3: intermediate degrees of injury based upon the number and extent to which leaves were injured; 4: intermediate degrees of injury based upon the number and extent to which leaves were injured; 5: the plant was dead; conditions: 2500 parts per million; ten days
Method: as §1

[9] = Water solubility; assay type: physicochemical; conditions: 25° C.
[10] = tested on: house flies (Musca domestica, L.); test: Fly Bait Test; assay type: in vivo; parameters: key: A: Excellent control; B: Partial control; C: No control; conditions: 500 parts per million in sugar solution bait; twenty four hours
Method: as §2, §3
Four to six day old adult house flies (Musca domestica, L.) reared according to the specifications of the Chemical Specialties Manufacturing Association (Blue Book, McNair-Dorland Co., N.Y., 1954; pages 243-244, 261) under controlled conditions of 80±° F. and 50±5 percent relative humidity, were the test insects. […]

[11] = tested on: Mexican bean beetle (Epilachna varivestis, Muls.); test: Mexican Bean Beetle Leaf Spray Test; assay type: in vivo; parameters: key: A: Excellent control; B: Partial control; C: No control; conditions: 500 parts per million; three days
Method: as §2, §3
Fourth instar larvae of the Mexican bean beetle (Epilachna varivestis, Muls.) reared on Tendergreen bean plants at a temperature of 80±5° and 50±5 percent relative humidity, were the test insects.
The test compound was formulated by diluting the stock suspension with water to give a suspension containing 500 parts of test compound per million parts of final formulation. […]

CN(C(=O)C[N+](C)(C)CCOCC[N+](C)(C)CC(=O)N(C)C(=O)Oc1cccc2ccccc12)C(=O)Oc1cccc2ccccc12 [EXAMPLE IV]
Herbicidal: Bean [1]: 2 | Insecticidal and Miticidal: So. Army Worm [2]: A | Herbicidal: Soybean [3]: 2 | Insecticidal and Miticidal: Aphid [4]: B | Herbicidal: Tom. [5]: 1 | Insecticidal and Miticidal: Mite [6]: C | Herbicidal: Cot. [7]: 2 | Herbicidal: Cot. [8]: 1 | % Water Solubility [9]: 20% | solubility ([9]; water): 200 mg/mL | Insecticidal and Miticidal: House Fly [10]: A | Insecticidal and Miticidal: Mexican Bean Beetle [11]: A
